Format in all cases: cell-based
The target of assay [1] is T1, TYK2 (Homo sapiens, UniProt P29597). Kind of assay: TYK2 degradation MSD assay in human PBMC cells. Details: endogenous in cells; host or cells: human PBMC. The note with it: 4 to 24 hours incubation, read-out: TYK2 MSD DC50 rating in human PBMC. In short, it runs like this: (§1)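 MSD electrochemiluminescence readout of residual TYK2 in RIPA lysates after 4–24 h compound exposure at 37° C. Dosing: 9 concentrations, 1:3 steps, top 1 to 10 μM. DC50 fitted by four-parameter inhibitor vs. response regression.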

The target in assay [2] is T1, TYK2. Kind of assay: TYK2 degradation MSD assay in EBV-B cells. Also noted: endogenous in cells; host or cells: EBV-B cells. The note with it: 4 to 24 hours incubation, read-out: TYK2 MSD DC50 rating in EBV-B. In short, it runs like this:
as §1

The target in assay [3] is T1, TYK2. The experiment in a line: TYK2 degradation MSD assay in OCI-LY10 cells. Also noted: endogenous in cells; host or cells: EBV-B cells. The following applies: 4 to 24 hours incubation, read-out: TYK2 MSD DC50 rating in OCI-LY10. An outline of the steps: as §1

The structures appear in SMILES notation.

T1 sequence (P29597 whole entry): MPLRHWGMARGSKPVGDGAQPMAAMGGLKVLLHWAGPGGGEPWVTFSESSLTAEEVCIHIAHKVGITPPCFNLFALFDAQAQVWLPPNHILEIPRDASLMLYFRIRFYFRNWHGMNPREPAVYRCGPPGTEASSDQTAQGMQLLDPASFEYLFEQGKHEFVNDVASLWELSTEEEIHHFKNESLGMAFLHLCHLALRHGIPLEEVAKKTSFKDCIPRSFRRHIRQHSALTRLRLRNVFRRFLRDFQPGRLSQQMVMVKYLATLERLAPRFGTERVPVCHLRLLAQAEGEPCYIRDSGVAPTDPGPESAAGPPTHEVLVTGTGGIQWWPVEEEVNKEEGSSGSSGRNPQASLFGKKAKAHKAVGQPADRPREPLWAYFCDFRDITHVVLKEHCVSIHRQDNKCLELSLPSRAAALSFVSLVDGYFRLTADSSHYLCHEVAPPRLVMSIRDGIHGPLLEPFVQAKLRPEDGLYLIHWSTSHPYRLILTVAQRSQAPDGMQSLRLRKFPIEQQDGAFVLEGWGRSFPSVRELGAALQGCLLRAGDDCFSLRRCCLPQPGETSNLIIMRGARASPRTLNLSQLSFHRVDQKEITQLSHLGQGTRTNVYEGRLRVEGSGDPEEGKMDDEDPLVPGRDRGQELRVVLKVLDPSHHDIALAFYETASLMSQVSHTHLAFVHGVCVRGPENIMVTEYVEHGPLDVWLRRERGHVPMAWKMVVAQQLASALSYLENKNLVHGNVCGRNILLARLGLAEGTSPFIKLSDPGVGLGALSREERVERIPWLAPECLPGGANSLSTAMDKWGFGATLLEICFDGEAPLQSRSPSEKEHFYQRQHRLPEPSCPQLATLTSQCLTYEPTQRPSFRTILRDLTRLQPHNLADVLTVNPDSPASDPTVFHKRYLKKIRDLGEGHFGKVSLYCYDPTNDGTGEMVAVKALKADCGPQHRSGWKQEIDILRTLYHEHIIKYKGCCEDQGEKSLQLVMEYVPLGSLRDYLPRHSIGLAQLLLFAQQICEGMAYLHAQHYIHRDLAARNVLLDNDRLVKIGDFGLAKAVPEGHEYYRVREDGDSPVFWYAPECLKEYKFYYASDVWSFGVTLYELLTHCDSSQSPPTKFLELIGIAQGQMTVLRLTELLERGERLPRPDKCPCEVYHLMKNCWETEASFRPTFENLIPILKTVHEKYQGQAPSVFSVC

With `CNc1cc(Nc2cccc(C(=O)NCCCCCCc3ccc4c(c3)n(C)c(=O)n4C3CCC(=O)NC3=O)c2)nn2c(C(=O)N[C@@H]3C[C@@H]3F)cnc12` (stereo partly drawn) [Example K249], the half-maximal degradation concentration (DC50) at TYK2 [1], on TYK2 [2] and at TYK2 [3] was greater than 100 nM each time.
In the case of `CNc1cc(Nc2cccc(C(=O)NCCCCCCc3cccc4c3n(C)c(=O)n4C3CCC(=O)NC3=O)c2)nn2c(C(=O)N[C@@H]3C[C@@H]3F)cnc12` (stereo partly drawn) [Example K250], the half-maximal degradation concentration (DC50) – broadly, the midpoint of the concentration-degradation curve – on TYK2 [1] is less than 1 nM; at TYK2 [2] it was greater than 100 nM; at TYK2 [3], greater than 100 nM.
With `CNc1cc(Nc2cccc(C(=O)NCCCCCCCCc3ccc4c(c3)n(C)c(=O)n4C3CCC(=O)NC3=O)c2)nn2c(C(=O)N[C@@H]3C[C@@H]3F)cnc12` (stereo partly drawn) [Example K251], the DC50 is less than 1 nM on TYK2 [1], greater than 100 nM on TYK2 [2] and greater than 100 nM on TYK2 [3].
As for `CNc1cc(Nc2ccccc2C(=O)NCCCCc2ccc3c(c2)n(C)c(=O)n3C2CCC(=O)NC2=O)nn2c(C(=O)N[C@@H]3C[C@@H]3F)cnc12` (stereo partly drawn) [Example K252], the DC50 at TYK2 [1], on TYK2 [2] and at TYK2 [3] was greater than 100 nM each time.
Take `CNc1cc(Nc2ccccc2C(=O)NCCCCc2cccc3c2n(C)c(=O)n3C2CCC(=O)NC2=O)nn2c(C(=O)N[C@@H]3C[C@@H]3F)cnc12` (stereo partly drawn) [Example K253]: the 50% degradation concentration (DC50) at TYK2 [1], on TYK2 [2] and on TYK2 [3] was greater than 100 nM each time.
In the case of `CNc1cc(Nc2cccc(C(=O)NCCCCCCCCc3cccc4c3n(C)c(=O)n4C3CCC(=O)NC3=O)c2)nn2c(C(=O)N[C@@H]3C[C@@H]3F)cnc12` (stereo partly drawn) [Example K254], the 50% degradation concentration (DC50) at TYK2 [1] is 1 to 10 nM; on TYK2 [2], greater than 100 nM; at TYK2 [3], greater than 100 nM.
As to `CNc1cc(Nc2ccccc2C(=O)NCCCCCCc2ccc3c(c2)n(C)c(=O)n3C2CCC(=O)NC2=O)nn2c(C(=O)N[C@@H]3C[C@@H]3F)cnc12` (stereo partly drawn) [Example K255], the values for the half-maximal degradation concentration (DC50) on TYK2 [1], on TYK2 [2] and on TYK2 [3] were less than 1 nM, greater than 100 nM and greater than 100 nM, respectively.
On to `CNc1cc(Nc2ccccc2C(=O)NCCCCCCCCc2ccc3c(c2)n(C)c(=O)n3C2CCC(=O)NC2=O)nn2c(C(=O)N[C@@H]3C[C@@H]3F)cnc12` (stereo partly drawn) [Example K256], for which the half-maximal degradation concentration (DC50) was less than 1 nM on TYK2 [1], greater than 100 nM on TYK2 [2] and greater than 100 nM at TYK2 [3].
As to `CNc1cc(Nc2ccccc2C(=O)NCCCCCCc2cccc3c2n(C)c(=O)n3C2CCC(=O)NC2=O)nn2c(C(=O)N[C@@H]3C[C@@H]3F)cnc12` (stereo partly drawn) [Example K257], the DC50 is 1 to 10 nM at TYK2 [1], greater than 100 nM at TYK2 [2] and 10 to 100 nM on TYK2 [3].
Take `CNc1cc(Nc2ccccc2C(=O)NCCCCCCCCc2cccc3c2n(C)c(=O)n3C2CCC(=O)NC2=O)nn2c(C(=O)N[C@@H]3C[C@@H]3F)cnc12` (stereo partly drawn) [Example K258]: the 50% degradation concentration (DC50) was less than 1 nM on TYK2 [1], greater than 100 nM at TYK2 [2] and greater than 100 nM on TYK2 [3].
Turning to `CNc1cc(Nc2cccn(-c3ccc(C(=O)NCCCCc4cccc5c4n(C)c(=O)n5C4CCC(=O)NC4=O)cn3)c2=O)nn2c(C(=O)N[C@@H]3C[C@@H]3F)cnc12` (stereo partly drawn) [Example K259], the DC50 at TYK2 [1], at TYK2 [2] and on TYK2 [3] was greater than 100 nM in each case.
In the case of `CNc1cc(Nc2cccn(-c3ccc(C(=O)NCCCCCCCc4ccc5c(c4)n(C)c(=O)n5C4CCC(=O)NC4=O)cn3)c2=O)nn2c(C(=O)N[C@@H]3C[C@@H]3F)cnc12` (stereo partly drawn) [Example K260], the half-maximal degradation concentration (DC50) at TYK2 [1] is less than 1 nM; on TYK2 [2], greater than 100 nM; at TYK2 [3], greater than 100 nM.
Turning to `CNc1cc(Nc2cccn(-c3ccc(C(=O)NCCCCCCCCCCc4ccc5c(c4)n(C)c(=O)n5C4CCC(=O)NC4=O)cn3)c2=O)nn2c(C(=O)N[C@@H]3C[C@@H]3F)cnc12` (stereo partly drawn) [Example K261], the DC50 at TYK2 [1] is less than 1 nM; on TYK2 [2], 1 to 10 nM; at TYK2 [3] it was greater than 100 nM.
With `CNc1cc(Nc2cccn(-c3ccc(C(=O)NCCOCCOCCc4ccc5c(c4)n(C)c(=O)n5C4CCC(=O)NC4=O)cn3)c2=O)nn2c(C(=O)N[C@@H]3C[C@@H]3F)cnc12` (stereo partly drawn) [Example K262], the 50% degradation concentration (DC50) on TYK2 [1] was 1 to 10 nM; on TYK2 [2] it was greater than 100 nM; on TYK2 [3], greater than 100 nM.
In the case of `CNc1cc(Nc2cccn(-c3ccc(C(=O)NCCOCCOCCOCCOCCc4ccc5c(c4)n(C)c(=O)n5C4CCC(=O)NC4=O)cn3)c2=O)nn2c(C(=O)N[C@@H]3C[C@@H]3F)cnc12` (stereo partly drawn) [Example K263], the figures for the DC50 at TYK2 [1], on TYK2 [2] and on TYK2 [3] were 1 to 10 nM, greater than 100 nM and greater than 100 nM, respectively.
Consider `CNc1cc(Nc2cccn(-c3ccc(C(=O)NCCCCc4ccc5c(c4)n(C)c(=O)n5C4CCC(=O)NC4=O)cn3)c2=O)nn2c(C(=O)N[C@@H]3C[C@@H]3F)cnc12` (stereo partly drawn) [Example K264], for which the half-maximal degradation concentration (DC50) on TYK2 [1], on TYK2 [2] and at TYK2 [3] was greater than 100 nM throughout.
For the compound `CNc1cc(Nc2cccn(-c3ccc(C(=O)NCCCCCCCc4cccc5c4n(C)c(=O)n5C4CCC(=O)NC4=O)cn3)c2=O)nn2c(C(=O)N[C@@H]3C[C@@H]3F)cnc12` (stereo partly drawn) [Example K265], the DC50 at TYK2 [1] is less than 1 nM; at TYK2 [2], greater than 100 nM; on TYK2 [3], greater than 100 nM.
With `CNc1cc(Nc2cccn(-c3ccc(C(=O)NCCCCCCCCCc4cccc5c4n(C)c(=O)n5C4CCC(=O)NC4=O)cn3)c2=O)nn2c(C(=O)N[C@@H]3C[C@@H]3F)cnc12` (stereo partly drawn) [Example K266], the DC50 on TYK2 [1] is less than 1 nM; on TYK2 [2], greater than 100 nM; on TYK2 [3], greater than 100 nM.
Take `CNc1cc(Nc2cccn(C3CCN(C(=O)COCCOCCc4ccc5c(c4)n(C)c(=O)n5C4CCC(=O)NC4=O)CC3)c2=O)nn2c(C(=O)N[C@@H]3C[C@@H]3F)cnc12` (stereo partly drawn) [Example K275]: the DC50 at TYK2 [1], at TYK2 [2] and at TYK2 [3] was greater than 100 nM throughout.
For `CNc1cc(Nc2cccn(C3CCN(C(=O)COCCOCCOCCOCCc4ccc5c(c4)n(C)c(=O)n5C4CCC(=O)NC4=O)CC3)c2=O)nn2c(C(=O)N[C@@H]3C[C@@H]3F)cnc12` (stereo partly drawn) [Example K276], the DC50 was 10 to 100 nM at TYK2 [1], greater than 100 nM at TYK2 [2] and greater than 100 nM on TYK2 [3].
Turning to `CNc1cc(Nc2cccn(C3CCN(C(=O)NCCCCc4ccc5c(c4)n(C)c(=O)n5C4CCC(=O)NC4=O)CC3)c2=O)nn2c(C(=O)N[C@@H]3C[C@@H]3F)cnc12` (stereo partly drawn) [Example K277], the DC50 was 1 to 10 nM on TYK2 [1], greater than 100 nM at TYK2 [2] and greater than 100 nM at TYK2 [3].
On to `CNc1cc(Nc2cccn(C3CCN(C(=O)NCCCCc4cccc5c4n(C)c(=O)n5C4CCC(=O)NC4=O)CC3)c2=O)nn2c(C(=O)N[C@@H]3C[C@@H]3F)cnc12` (stereo partly drawn) [Example K278], for which the DC50 at TYK2 [1] is 1 to 10 nM; at TYK2 [2], greater than 100 nM; on TYK2 [3] it was greater than 100 nM.
In the case of `CNc1cc(Nc2cccn(-c3ccc(C(=O)N(C)C4CCN(Cc5cccc6c5n(C)c(=O)n6C5CCC(=O)NC5=O)CC4)cn3)c2=O)nn2c(C(=O)N[C@@H]3C[C@@H]3F)cnc12` (stereo partly drawn) [Example K279], the DC50 at TYK2 [1] was less than 1 nM; at TYK2 [2] it was greater than 100 nM; on TYK2 [3], greater than 100 nM.
`CNc1cc(Nc2cccn(-c3ccc(C(=O)N(C)CC4CCN(c5ccc6c(c5)n(C)c(=O)n6C5CCC(=O)NC5=O)CC4)cn3)c2=O)nn2c(C(=O)N[C@@H]3C[C@@H]3F)cnc12` (stereo partly drawn) [Example K280]: the DC50 at TYK2 [1] was less than 1 nM; at TYK2 [2], less than 1 nM; on TYK2 [3] it was greater than 100 nM.
As for `CNc1cc(Nc2cccn(-c3ccc(C(=O)N(C)CC4CCN(Cc5cccc6c5n(C)c(=O)n6C5CCC(=O)NC5=O)CC4)cn3)c2=O)nn2c(C(=O)N[C@@H]3C[C@@H]3F)cnc12` (stereo partly drawn) [Example K281], the DC50 at TYK2 [1] is less than 1 nM; on TYK2 [2], less than 1 nM; at TYK2 [3], greater than 100 nM.
As to `CNc1cc(-c2cnn(C3CCN(C(=O)NCCCCc4ccc5c(c4)n(C)c(=O)n5C4CCC(=O)NC4=O)CC3)c2)nn2c(C(=O)N[C@@H]3C[C@@H]3F)cnc12` (stereo partly drawn) [Example K294], the half-maximal degradation concentration (DC50) at TYK2 [1], on TYK2 [2] and at TYK2 [3] was greater than 100 nM in each case.
With `CNc1cc(-c2cnn(C3CCN(C(=O)NCCCCc4cccc5c4n(C)c(=O)n5C4CCC(=O)NC4=O)CC3)c2)nn2c(C(=O)N[C@@H]3C[C@@H]3F)cnc12` (stereo partly drawn) [Example K295], the DC50 on TYK2 [1], on TYK2 [2] and on TYK2 [3] was greater than 100 nM in each case.
For `CNc1cc(-c2cnn(C3CCN(C(=O)NCCCCCCCCc4ccc5c(c4)n(C)c(=O)n5C4CCC(=O)NC4=O)CC3)c2)nn2c(C(=O)N[C@@H]3C[C@@H]3F)cnc12` (stereo partly drawn) [Example K296], the DC50 at TYK2 [1] is less than 1 nM; at TYK2 [2], greater than 100 nM; on TYK2 [3], greater than 100 nM.
In the case of `CNc1cc(-c2ccc(C(=O)NCCCCCCc3ccc4c(c3)n(C)c(=O)n4C3CCC(=O)NC3=O)cc2)nn2c(C(=O)N[C@@H]3C[C@@H]3F)cnc12` (stereo partly drawn) [Example K298], the DC50 on TYK2 [1], at TYK2 [2] and on TYK2 [3] was greater than 100 nM each time.
As for `CNc1cc(-c2ccc(C(=O)NCCCCc3cccc4c3n(C)c(=O)n4C3CCC(=O)NC3=O)cc2)nn2c(C(=O)N[C@@H]3C[C@@H]3F)cnc12` (stereo partly drawn) [Example K299], the DC50 on TYK2 [1], at TYK2 [2] and at TYK2 [3] was greater than 100 nM in each case.
`CNc1cc(-c2ccc(C(=O)NCCCCCCc3cccc4c3n(C)c(=O)n4C3CCC(=O)NC3=O)cc2)nn2c(C(=O)N[C@@H]3C[C@@H]3F)cnc12` (stereo partly drawn) [Example K300]: the DC50 at TYK2 [1], on TYK2 [2] and on TYK2 [3] was greater than 100 nM in each case.
Take `CNc1cc(-c2ccc(C(=O)NCCCCCCCCc3ccc4c(c3)n(C)c(=O)n4C3CCC(=O)NC3=O)cc2)nn2c(C(=O)N[C@@H]3C[C@@H]3F)cnc12` (stereo partly drawn) [Example K301]: the half-maximal degradation concentration (DC50) at TYK2 [1], on TYK2 [2] and at TYK2 [3] was greater than 100 nM in each case.

The record behind these values is US20250051338A1, “TYK2 DEGRADERS AND USES THEREOF” (Kymera Therapeutics, Inc., priority 2021, published 2025).
